In patent US5041567A, “Antibacterial monic acid derivatives” (Beecham Group plc, priority 1982, dated 1991):
Converted amounts (≈) assume the structure as drawn. Where two headings read alike, the source gives them in different places.

Tests used:
Strep. dysgalactiae SPD1 = experiment: MIC against veterinary bacteria in vitro; conditions: Streptococcus dysgalactiae, SPD1, 18 h
Description: (§1) The activity of the compounds of the Examples against various veterinarily important bacteria, was assayed in vitro using two-fold serial dilutions in Diagnostic Sensitivity Test Agar inoculated with 10^4 organisms.

Bord. bronchiseptica B08 = experiment: MIC against veterinary bacteria in vitro; conditions: Bordetella bronchiseptica, B08, 18 h
Description: as §1

Strep. faecalis I = experiment: MIC against human bacteria in vitro; format: cell-based; conditions: Enterococcus faecalis; Strep. faecalis I; 5% chocolated horse blood agar, 18 hours; read-out: MIC
M. hyorhinis ATCC 25021 = experiment: MIC against mycoplasma in vitro; format: cell-based; conditions: Mesomycoplasma hyorhinis, ATCC25021, 144 h
E. coli E1 = experiment: MIC against veterinary bacteria in vitro; conditions: Escherichia coli, E1, 18 h
Description: as §1

Sarcina lutea 8340 = experiment: MIC against human bacteria in vitro; format: cell-based; conditions: Micrococcus luteus; Sarcina lutea 8340; 5% chocolated horse blood agar, 18 hours; read-out: MIC
Past. multocida PA2 = experiment: MIC against veterinary bacteria in vitro; conditions: Pasteurella multocida, PA2, 18 h
Description: as §1

M. suipneumoniae TAM 6N = experiment: MIC against mycoplasma in vitro; format: cell-based; conditions: Mesomycoplasma hyopneumoniae, TAM6N, 144 h
M. suipneumoniae MS 16 = experiment: MIC against mycoplasma in vitro; format: cell-based; conditions: Mesomycoplasma hyopneumoniae, MS16, 144 h
P. mirabilis 889 = experiment: MIC against human bacteria in vitro; format: cell-based; conditions: Proteus mirabilis; P. mirabilis 889; 5% chocolated horse blood agar, 18 hours; read-out: MIC
Staph. aureus Russell = experiment: MIC against human bacteria in vitro; format: cell-based; conditions: Staphylococcus aureus; Staph. aureus Russell; 5% chocolated horse blood agar, 18 hours; read-out: MIC
Strep. agalactiae SPA1 = experiment: MIC against veterinary bacteria in vitro; conditions: Streptococcus agalactiae, SPA1, 18 h
Description: as §1

M. suipneumoniae LABER = experiment: MIC against mycoplasma in vitro; format: cell-based; conditions: Mesomycoplasma hyopneumoniae, 144 h
[1] = tested on: Staph. aureus B4 (pen. resistant); experiment: MIC against veterinary bacteria in vitro; conditions: Staphylococcus aureus, 18 h
Description: as §1

E. coli NCTC 10418 = experiment: MIC against human bacteria in vitro; format: cell-based; conditions: Escherichia coli, NCTC10418; E. coli NCTC 10418; agar with 5% chocolated horse blood, 18 hours, 37° C.; read-out: MIC
M. suipneumoniae HK(2) = experiment: MIC against mycoplasma in vitro; format: cell-based; conditions: Mesomycoplasma hyopneumoniae, 144 h
M. dispar NCTC 10125 = experiment: MIC against mycoplasma in vitro; format: cell-based; conditions: 144 h
E. coli ESS = experiment: MIC against human bacteria in vitro; format: cell-based; conditions: Escherichia coli; E. coli ESS; 5% chocolated horse blood agar, 18 hours; read-out: MIC
[2] = tested on: M. suipneumoniae PW/C/210; experiment: MIC against mycoplasma in vitro; format: cell-based; conditions: Mesomycoplasma hyopneumoniae, 144 h
K. aerogenes A = experiment: MIC against human bacteria in vitro; format: cell-based; conditions: Klebsiella aerogenes; K. aerogenes A; 5% chocolated horse blood agar, 18 hours; read-out: MIC
Staph. aureus Oxford = experiment: MIC against human bacteria in vitro; format: cell-based; conditions: Staphylococcus aureus; Staph. aureus Oxford; 5% chocolated horse blood agar, 18 hours; read-out: MIC
S. dublin S7 = experiment: MIC against veterinary bacteria in vitro; conditions: Salmonella enterica, S7, 18 h
Description: as §1

Strep. spp. 64/848-C = experiment: MIC against human bacteria in vitro; format: cell-based; conditions: Strep. spp. 64/848-C; 5% chocolated horse blood agar, 18 hours; read-out: MIC
Strep. agalactiae 2788-B = experiment: MIC against human bacteria in vitro; format: cell-based; conditions: Streptococcus agalactiae; Strep. agalactiae 2788-B; 5% chocolated horse blood agar, 18 hours; read-out: MIC
Strep. pneumoniae CN33 = experiment: MIC against human bacteria in vitro; format: cell-based; conditions: Streptococcus pneumoniae; Strep. pneumoniae CN33; 5% chocolated horse blood agar, 18 hours; read-out: MIC
M. hyorhinis ATCC 23234 = experiment: MIC against mycoplasma in vitro; format: cell-based; conditions: Mesomycoplasma hyorhinis, ATCC23234, 144 h
[3] = tested on: Corynebacterium xerosis 9755; experiment: MIC against human bacteria in vitro; format: cell-based; conditions: Corynebacterium xerosis 9755; 5% chocolated horse blood agar, 18 hours; read-out: MIC
[4] = tested on: M. suipneumoniae ATCC 25095; experiment: MIC against mycoplasma in vitro; format: cell-based; conditions: Mesomycoplasma hyopneumoniae, ATCC25095, 144 h
Staph. aureus W2827 = experiment: MIC against human bacteria in vitro; format: cell-based; conditions: Staphylococcus aureus; Staph. aureus W2827; 5% chocolated horse blood agar, 18 hours; read-out: MIC
Past. multocida PA1 = experiment: MIC against veterinary bacteria in vitro; conditions: Pasteurella multocida, PA1, 18 h
Description: as §1

[5] = tested on: Pasteurella multocida 1633; experiment: MIC against human bacteria in vitro; format: cell-based; conditions: Pasteurella multocida 1633; 5% chocolated horse blood agar, 18 hours; read-out: MIC
M. suipneumoniae UCD 1 = experiment: MIC against mycoplasma in vitro; format: cell-based; conditions: Mesomycoplasma hyopneumoniae, UCD1, 144 h
Bord. bronchiseptica B09 = experiment: MIC against veterinary bacteria in vitro; conditions: Bordetella bronchiseptica, B09, 18 h
Description: as §1

[6] = tested on: Strep. suis (group D) SPS11; experiment: MIC against veterinary bacteria in vitro; conditions: Streptococcus suis, 18 h
Description: as §1

Bacillus subtilis 6633 = experiment: MIC against human bacteria in vitro; format: cell-based; conditions: Bacillus subtilis 6633; 5% chocolated horse blood agar, 18 hours; read-out: MIC
[7] = M. hyorhinis ATCC 25021, 6 days, 37° C., read-out: MIC
[8] = M. suipneumoniae TAM 6N, 6 days, 37° C., read-out: MIC
[9] = M. suipneumoniae MS 16, 6 days, 37° C., read-out: MIC
[10] = M. suipneumoniae LABER, 6 days, 37° C., read-out: MIC
[11] = M. suipneumoniae HK(2), 6 days, 37° C., read-out: MIC
[12] = M. dispar NCTC 10125, 6 days, 37° C., read-out: MIC
[13] = M. suipneumoniae PW/C/210, 6 days, 37° C., read-out: MIC
[14] = M. hyorhinis ATCC 23234, 6 days, 37° C., read-out: MIC
[15] = M. suipneumoniae ATCC 25095, 6 days, 37° C., read-out: MIC
[16] = M. suipneumoniae UCD 1, 6 days, 37° C., read-out: MIC

C/C(=C\c1ncc(-c2ccc(S(C)(=O)=O)cc2)o1)C[C@@H]1OC[C@H](C[C@@H]2O[C@H]2[C@@H](C)[C@H](C)O)[C@@H](O)[C@H]1O [Example 10]
MIC (Strep. dysgalactiae SPD1): 2.5 µg/mL (≈ 4.79 µM)
MIC (Bord. bronchiseptica B08): > 80 µg/mL
MIC (Strep. faecalis I): > 128 µg/mL
MIC (M. hyorhinis ATCC 25021): 0.025 µg/mL (≈ 0.0479 µM)
MIC (E. coli E1): > 80 µg/mL
MIC (Sarcina lutea 8340): > 128 µg/mL
MIC (Past. multocida PA2): 1.25 µg/mL (≈ 2.4 µM)
MIC (M. suipneumoniae TAM 6N): 0.05 µg/mL (≈ 0.0959 µM)
MIC (M. suipneumoniae MS 16): 0.025 µg/mL (≈ 0.0479 µM)
MIC (P. mirabilis 889): > 128 µg/mL
MIC (Staph. aureus Russell): 8 µg/mL (≈ 15.3 µM)
MIC (Strep. agalactiae SPA1): 2.5 µg/mL (≈ 4.79 µM)
MIC (M. suipneumoniae LABER): 0.025 µg/mL (≈ 0.0479 µM)
MIC [1]: 5 µg/mL (≈ 9.59 µM)
MIC (E. coli NCTC 10418): > 128 µg/mL
MIC (M. suipneumoniae HK(2)): 0.05 µg/mL (≈ 0.0959 µM)
MIC (M. dispar NCTC 10125): 0.025 µg/mL (≈ 0.0479 µM)
MIC (E. coli ESS): 8 µg/mL (≈ 15.3 µM)
MIC [2]: 0.025 µg/mL (≈ 0.0479 µM)
MIC (K. aerogenes A): > 128 µg/mL
MIC (Staph. aureus Oxford): 8 µg/mL (≈ 15.3 µM)
MIC (S. dublin S7): > 80 µg/mL
MIC (Strep. spp. 64/848-C): 4 µg/mL (≈ 7.67 µM)
MIC (Strep. agalactiae 2788-B): 8 µg/mL (≈ 15.3 µM)
MIC (Strep. pneumoniae CN33): 8 µg/mL (≈ 15.3 µM)
MIC (M. hyorhinis ATCC 23234): 0.025 µg/mL (≈ 0.0479 µM)
MIC [3]: > 128 µg/mL
MIC [4]: 0.025 µg/mL (≈ 0.0479 µM)
MIC (Staph. aureus W2827): 8 µg/mL (≈ 15.3 µM)
MIC (Past. multocida PA1): 5 µg/mL (≈ 9.59 µM)
MIC [5]: 8 µg/mL (≈ 15.3 µM)
MIC (M. suipneumoniae UCD 1): 0.05 µg/mL (≈ 0.0959 µM)
MIC (Bord. bronchiseptica B09): 40 µg/mL (≈ 76.7 µM)
MIC [6]: 10 µg/mL (≈ 19.2 µM)
MIC (Bacillus subtilis 6633): 2 µg/mL (≈ 3.83 µM)

C/C(=C\c1ncc(-c2ccc([S+](C)[O-])cc2)o1)C[C@@H]1OC[C@H](C[C@@H]2O[C@H]2[C@@H](C)[C@H](C)O)[C@@H](O)[C@H]1O (stereo partly drawn) [Example 11, 5-p-Methylsulphinylphenyl-2-(1-normon-2-yl) oxazole A]
MIC (Strep. dysgalactiae SPD1): 1.25 µg/mL (≈ 2.47 µM)
MIC (Bord. bronchiseptica B08): > 80 µg/mL
MIC (Strep. faecalis I): > 128 µg/mL
MIC (M. hyorhinis ATCC 25021; [7]): 0.1 µg/mL (≈ 0.198 µM)
MIC (E. coli E1): > 80 µg/mL
MIC (Sarcina lutea 8340): > 128 µg/mL
MIC (Past. multocida PA2): 0.625 µg/mL (≈ 1.24 µM)
MIC (M. suipneumoniae TAM 6N; [8]): 0.5 µg/mL (≈ 0.989 µM)
MIC (M. suipneumoniae MS 16; [9]): 0.1 µg/mL (≈ 0.198 µM)
MIC (P. mirabilis 889): > 128 µg/mL
MIC (Staph. aureus Russell): 16 µg/mL (≈ 31.6 µM)
MIC (Strep. agalactiae SPA1): 2.5 µg/mL (≈ 4.94 µM)
MIC (M. suipneumoniae LABER; [10]): 0.1 µg/mL (≈ 0.198 µM)
MIC [1]: 5 µg/mL (≈ 9.89 µM)
MIC (E. coli NCTC 10418): > 128 µg/mL
MIC (M. suipneumoniae HK(2); [11]): 0.25 µg/mL (≈ 0.494 µM)
MIC (M. dispar NCTC 10125; [12]): 0.1 µg/mL (≈ 0.198 µM)
MIC (E. coli ESS): 128 µg/mL (≈ 253 µM)
MIC [2, 13]: 0.1 µg/mL (≈ 0.198 µM)
MIC (K. aerogenes A): > 128 µg/mL
MIC (Staph. aureus Oxford): 16 µg/mL (≈ 31.6 µM)
MIC (S. dublin S7): > 80 µg/mL
MIC (Strep. spp. 64/848-C): 2 µg/mL (≈ 3.96 µM)
MIC (Strep. agalactiae 2788-B): 4 µg/mL (≈ 7.91 µM)
MIC (Strep. pneumoniae CN33): 4 µg/mL (≈ 7.91 µM)
MIC (M. hyorhinis ATCC 23234; [14]): 0.1 µg/mL (≈ 0.198 µM)
MIC [3]: > 128 µg/mL
MIC [4, 15]: 0.25 µg/mL (≈ 0.494 µM)
MIC (Staph. aureus W2827): 16 µg/mL (≈ 31.6 µM)
MIC (Past. multocida PA1): 5 µg/mL (≈ 9.89 µM)
MIC [5]: 8 µg/mL (≈ 15.8 µM)
MIC (M. suipneumoniae UCD 1; [16]): 0.25 µg/mL (≈ 0.494 µM)
MIC (Bord. bronchiseptica B09): 40 µg/mL (≈ 79.1 µM)
MIC [6]: 5 µg/mL (≈ 9.89 µM)
MIC (Bacillus subtilis 6633): 4 µg/mL (≈ 7.91 µM)

C/C(=C\c1ncc(CCCCCCCC(=O)O)o1)C[C@@H]1OC[C@H](C[C@@H]2O[C@H]2[C@@H](C)[C@H](C)O)[C@@H](O)[C@H]1O [Example 12, Sodium 8-[2-(1-normon-2-yl)-5-oxazolyl]-octanoate A]
MIC (Strep. dysgalactiae SPD1): 0.625 µg/mL
MIC (Bord. bronchiseptica B08): > 40 µg/mL
MIC (Strep. faecalis I): > 16 µg/mL
MIC (M. hyorhinis ATCC 25021; [7]): 5 µg/mL
MIC (E. coli E1): > 40 µg/mL
MIC (Sarcina lutea 8340): > 16 µg/mL
MIC (Past. multocida PA2): 0.156 µg/mL
MIC (M. suipneumoniae TAM 6N; [8]): > 10 µg/mL
MIC (M. suipneumoniae MS 16; [9]): 10 µg/mL
MIC (P. mirabilis 889): > 16 µg/mL
MIC (Staph. aureus Russell): 8 µg/mL
MIC (Strep. agalactiae SPA1): 20 µg/mL
MIC (M. suipneumoniae LABER; [10]): > 10 µg/mL
MIC [1]: 2.5 µg/mL
MIC (E. coli NCTC 10418): > 16 µg/mL
MIC (M. suipneumoniae HK(2); [11]): > 10 µg/mL
MIC (M. dispar NCTC 10125; [12]): 5 µg/mL
MIC (E. coli ESS): > 16 µg/mL
MIC [2, 13]: 10 µg/mL
MIC (K. aerogenes A): > 16 µg/mL
MIC (Staph. aureus Oxford): 8 µg/mL
MIC (S. dublin S7): > 40 µg/mL
MIC (Strep. spp. 64/848-C): 4 µg/mL
MIC (Strep. agalactiae 2788-B): 16 µg/mL
MIC (Strep. pneumoniae CN33): 16 µg/mL
MIC (M. hyorhinis ATCC 23234; [14]): 5 µg/mL
MIC [3]: > 16 µg/mL
MIC [4, 15]: 10 µg/mL
MIC (Staph. aureus W2827): 8 µg/mL
MIC (Past. multocida PA1): 2.5 µg/mL
MIC [5]: 4 µg/mL
MIC (M. suipneumoniae UCD 1; [16]): > 10 µg/mL
MIC (Bord. bronchiseptica B09): 20 µg/mL
MIC [6]: 20 µg/mL
MIC (Bacillus subtilis 6633): 4 µg/mL
